Test results taken from patent US20120220528A1, “SYSTEMS AND METHODS FOR THERAPY OF KIDNEY DISEASE AND/OR HEART FAILURE USING CHIMERIC NATRIURETIC PEPTIDES” (MEDTRONIC, INC., priority 2011, published 2012).
Entries after “also recorded” stand apart in the source; their conditions may differ. Bridges are numbered along the chain shown (N, C = ends). Where no end group is shown, it is not given here.

Experiments:
[1] = system: Human renal medullary epithelial cells; experiment: In vitro cell-based assay of cGMP production; conditions: 9000, 3000, 300, 30, 10 and 0 nM, 15 minutes, ELISA
healthy canines [2] = experiment: Healthy canines: diuresis and natriuresis after subcutaneous bolus; type: in vivo, canine; conditions: SQ bolus, BNP 25 μg/kg
healthy canines [3] = experiment: Healthy canines: diuresis and natriuresis with IV infusion; type: in vivo, canine; conditions: one-hour IV infusion; CD-NP 100 ng/kg·min, BNP 30 ng/kg·min

Substance: ANP: human atrial natriuretic peptide (Phoenix Pharmaceuticals), control; ligand to the NPR-A receptor (SLRRSSCFGGRMDRIGAQSGLGCNSFRY; disulfide 7-23 (inferred); ends not checked; UniProt P01160 124-151, looked up)
- stimulation of cGMP production [1]: significantly less

Substance: BNP: commercial preparation of Natrecor; recombinant form of the 32 amino acid human B-type natriuretic peptide, comparative natriuretic peptide
- sodium excretion (natriuresis) following subcutaneous bolus (healthy canines [2]; CD-NP 27 μg/kg): increase
- urine flow following subcutaneous bolus vs baseline (healthy canines [2]; CD-NP 27 μg/kg (equimolar)): increase; also recorded: statistically significant
- sodium excretion (healthy canines [3]): increasing trend
- urine flow from baseline (healthy canines [3]): increasing trend
